Data taken from US8697380B2, “Method for detecting compounds modulating dimers of VFT domain membrane proteins” (CIS Bio International, priority 2009, dated 2014).

Biological target: mGluR2-mGluR2 dimer (Rattus norvegicus, UniProt P31421)
Details: for change in TRF520 signal in the presence of the compound: delay 50 μs, integration time 450 μs, BG-Lumi4-Tb/BC-fluorescein, dose-dependent; for maximum variation of TRF520 signal: dose-response up to 100 μM DCG-IV / 316 μM glutamate

mGluR2-mGluR2 dimer, sequence (P31421 23-872): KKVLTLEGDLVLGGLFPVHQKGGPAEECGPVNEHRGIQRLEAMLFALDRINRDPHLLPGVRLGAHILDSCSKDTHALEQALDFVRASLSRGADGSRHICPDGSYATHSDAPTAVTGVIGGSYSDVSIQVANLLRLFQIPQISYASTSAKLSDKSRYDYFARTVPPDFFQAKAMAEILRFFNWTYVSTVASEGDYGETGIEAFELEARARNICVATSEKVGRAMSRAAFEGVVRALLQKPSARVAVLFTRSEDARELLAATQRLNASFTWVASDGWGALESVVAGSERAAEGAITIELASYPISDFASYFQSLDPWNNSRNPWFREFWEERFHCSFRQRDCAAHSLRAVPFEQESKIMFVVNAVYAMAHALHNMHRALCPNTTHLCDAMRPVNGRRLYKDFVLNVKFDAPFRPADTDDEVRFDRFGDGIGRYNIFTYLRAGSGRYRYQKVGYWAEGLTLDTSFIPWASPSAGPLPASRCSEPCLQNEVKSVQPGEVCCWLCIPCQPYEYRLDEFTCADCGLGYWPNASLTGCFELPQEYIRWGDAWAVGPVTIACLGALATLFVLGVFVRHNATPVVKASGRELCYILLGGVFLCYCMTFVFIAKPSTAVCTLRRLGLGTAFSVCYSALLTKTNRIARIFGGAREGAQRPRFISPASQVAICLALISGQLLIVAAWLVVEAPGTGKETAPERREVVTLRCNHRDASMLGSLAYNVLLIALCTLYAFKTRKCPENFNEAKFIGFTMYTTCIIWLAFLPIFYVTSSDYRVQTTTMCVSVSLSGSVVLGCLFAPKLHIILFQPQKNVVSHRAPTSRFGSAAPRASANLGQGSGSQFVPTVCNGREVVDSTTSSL
mGluR2-mGluR2 dimer, sequence (P31421 23-872): as above

maximum variation of TRF520 signal | EC50 (read-out: concentration necessary for obtaining a variation equal to half the maximum variation (close to the pharmacological EC50), TRF520 signal, printed value is given as the pharmacological EC50) | variation in TRF520 (glutamate 100 μM, in the absence of the antagonist LY341495) | Structure (SMILES) | change in TRF520 signal in the presence of the compound | TRF520 signal for a given glutamate concentration, in the presence versus absence of the modulator (4-MPPTS 10 μM, glutamate 1-1000 μM)
30% | ~400 nM | – | N[C@H](C(=O)O)C1[C@@H](C(=O)O)[C@@H]1C(=O)O (stereo partly shown) [DCG-IV] | inhibiting the TRF520 signal in a dose-dependent manner | –
50% | – | 50% | N[C@@H](CCC(=O)O)C(=O)O [glutamate, L-glutamic acid] | decrease in TRF520 | –
– | – | – | COc1ccccc1Oc1ccc(N(Cc2cccnc2)S(=O)(=O)CC(F)(F)F)cc1 [4-MPPTS] | – | greater decrease in signal
